Data as given in patent publication US9345739B2, “Methods and compositions for the treatment of proteinuric diseases” (The General Hospital Corporation, priority 2007, dated 2016).
Entries after “also recorded” stand apart in the source; their conditions may differ.

Key:
cultured podocytes [1] = assay: Scrape wound (wound healing) assay, directed podocyte motility; assay type: cell-based, mouse; settings: for directed podocyte motility into the wound track: wild type podocytes, vitronectin-coated surface, treatment for 24 h
Experimental: To study the directional movement of podocytes, a wound healing assay was performed. Briefly, podocytes were seeded on Vn or type I collagen coated cover-slips and cultured for 10 days at 37° C. before treated with LPS or PAN for 12-48 h. To create a scrape wound approximately 0.1 cm wide, the narrow end of a P1000 pipette tip was perpendicularly pushed through the monolayer. Then, cover-slips were washed twice with PBS and incubated in medium. After incubation, cells were fixed with 2% PFA and stained with DAPI for analysis. The cell migratory distance was calculated by averaging the distance from the wound edge to the maximally migrated cell in five distinct border zones.

cultured podocytes [2] = assay: Multiwell Boyden chamber assay, random podocyte migration on vitronectin; assay type: cell-based, mouse; settings: wild type podocytes, treatment for 24 h
Experimental: Podocyte migration was analyzed using a 12-well chemotaxis chamber (Neuro Probe) according to the manufacturer's protocol. In brief, differentiated podocytes were treated with 50 μg/ml of LPS or PAN for 24 h and then harvested for the migration assay. Bottom plates were coated with vitronectin or type I collagen, while upper plates were loaded with equal number of cells (5×10^4) suspended in medium. The chamber was incubated at 37° C. for 4 h before the membrane was taken out and stained with diamidino phenylindole (DAPI). The average number of migrated cells was counted in four fields in six independent experiments.

uPAR = assay: Induction of uPAR in cultured podocytes, relative quantification; assay type: cell-based, mouse
αvβ3 integrin [3] = target: T1, αvβ3 integrin (Mus musculus, UniProt O54890+P43406); assay: Recovery of already existing LPS-induced proteinuria, urine Bradford assay; assay type: in vivo; settings: B6 mice, LPS at 0 and 24 h; 25 mg/kg body weight through tail vein 48 h after first injection
T1 construct: from tissue; host or cells: living wild type (C57BL/6, 'B6') mice
T1 sequence (P43406 31-1044): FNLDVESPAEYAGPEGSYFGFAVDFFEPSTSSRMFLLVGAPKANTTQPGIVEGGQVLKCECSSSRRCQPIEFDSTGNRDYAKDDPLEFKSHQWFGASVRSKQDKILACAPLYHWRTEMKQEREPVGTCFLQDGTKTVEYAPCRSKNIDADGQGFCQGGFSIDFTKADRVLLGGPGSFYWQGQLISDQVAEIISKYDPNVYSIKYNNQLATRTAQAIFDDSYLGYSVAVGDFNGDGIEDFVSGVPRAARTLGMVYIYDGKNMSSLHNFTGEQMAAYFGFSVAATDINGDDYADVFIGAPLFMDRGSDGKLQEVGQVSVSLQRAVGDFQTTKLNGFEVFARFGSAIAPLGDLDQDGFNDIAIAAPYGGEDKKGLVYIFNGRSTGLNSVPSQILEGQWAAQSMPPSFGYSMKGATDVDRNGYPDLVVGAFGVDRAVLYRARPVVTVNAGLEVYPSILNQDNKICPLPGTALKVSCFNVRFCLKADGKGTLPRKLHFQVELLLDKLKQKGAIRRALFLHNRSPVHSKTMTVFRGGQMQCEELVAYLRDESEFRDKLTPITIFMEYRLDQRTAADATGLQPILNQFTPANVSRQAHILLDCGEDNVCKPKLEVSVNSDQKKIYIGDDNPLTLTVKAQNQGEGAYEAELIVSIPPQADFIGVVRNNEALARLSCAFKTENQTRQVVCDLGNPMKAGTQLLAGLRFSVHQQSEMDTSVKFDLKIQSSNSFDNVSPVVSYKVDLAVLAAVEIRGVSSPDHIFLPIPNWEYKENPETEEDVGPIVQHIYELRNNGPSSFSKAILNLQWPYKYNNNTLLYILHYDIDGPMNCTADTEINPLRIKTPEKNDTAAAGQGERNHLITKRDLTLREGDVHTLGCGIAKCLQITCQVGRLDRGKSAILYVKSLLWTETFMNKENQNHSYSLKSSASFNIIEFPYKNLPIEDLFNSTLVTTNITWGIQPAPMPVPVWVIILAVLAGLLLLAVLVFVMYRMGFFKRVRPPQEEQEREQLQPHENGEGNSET
T1 sequence (O54890 26-787): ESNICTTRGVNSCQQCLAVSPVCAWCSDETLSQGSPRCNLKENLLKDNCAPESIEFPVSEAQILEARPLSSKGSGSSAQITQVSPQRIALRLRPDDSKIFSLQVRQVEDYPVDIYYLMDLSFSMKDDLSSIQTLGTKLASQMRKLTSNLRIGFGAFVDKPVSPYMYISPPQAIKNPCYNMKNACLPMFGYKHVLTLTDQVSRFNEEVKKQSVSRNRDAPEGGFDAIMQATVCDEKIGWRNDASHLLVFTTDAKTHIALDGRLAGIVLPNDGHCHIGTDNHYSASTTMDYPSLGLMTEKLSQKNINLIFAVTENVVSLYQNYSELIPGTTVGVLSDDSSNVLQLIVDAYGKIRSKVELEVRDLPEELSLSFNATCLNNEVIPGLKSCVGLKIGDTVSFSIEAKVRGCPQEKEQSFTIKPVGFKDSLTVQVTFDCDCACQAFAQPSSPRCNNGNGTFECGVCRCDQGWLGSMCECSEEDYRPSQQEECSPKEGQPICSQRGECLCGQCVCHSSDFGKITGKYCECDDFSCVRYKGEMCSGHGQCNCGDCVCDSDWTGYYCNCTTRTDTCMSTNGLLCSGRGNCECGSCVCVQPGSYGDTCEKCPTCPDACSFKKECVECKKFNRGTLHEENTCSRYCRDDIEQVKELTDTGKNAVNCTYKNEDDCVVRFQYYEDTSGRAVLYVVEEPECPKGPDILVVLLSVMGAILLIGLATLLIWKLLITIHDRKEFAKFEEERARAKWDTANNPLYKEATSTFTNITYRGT
Experimental: B6 mice are injected twice (0, 24 h) with LPS to induce and maintain proteinuria. 48 h after first injection, S247 (n=6) is administered (25 mg/kg body weight) through tail vein. Control (n=5) received the same amount of PBS. 0, 48 h, 66 h urine was collected for Braford assay.

β3 integrin = assay: Active β3 integrin (AP5 staining) in LPS treated cultured podocytes; assay type: cell-based, mouse; settings: disruption of lipid rafts
Source text: Cultured podocytes were immunolabeled as described previously^8.

[4] = target: β3 integrin on cultured mouse podocytes (mouse) (UniProt O54890); assay: flow cytometry, LPS treated mouse podocytes, 5 µg/ml AP5, 0.1 mM Ca2+
[5] = target: β3 integrin on cultured mouse podocytes (mouse) (UniProt O54890); assay: flow cytometry, LPS treated mouse podocytes, 5 µg/ml AP5, 1.0 mM Ca2+
[6] = target: β3 integrin on cultured mouse podocytes (mouse) (UniProt O54890); assay: flow cytometry, LPS treated mouse podocytes, 5 µg/ml AP5, 0.4 mM Ca2+
[7] = target: β3 integrin on cultured mouse podocytes (mouse) (UniProt O54890); assay: flow cytometry, LPS treated mouse podocytes, 5 µg/ml AP5, 1 mM EDTA
[8] = target: β3 integrin on cultured mouse podocytes (mouse) (UniProt O54890); assay: flow cytometry, LPS treated mouse podocytes, 5 µg/ml AP5, 2.0 mM Ca2+
cdc42 = assay: GTPase activity assay in isolated glomeruli (cdc42); assay type: in vivo, mouse; settings: wild type mice co-injected with LPS and RGDfV (every 8 hours for 24 hours)
Experimental: (§1) Rho family small GTPase activity in glomerular lysates was measured by Rho/Rac/Cdc42 activation assay kit (Cell Biolabs, INC.) following the manufacturer's protocol. Isolated glomeruli from wild type and uPAR^−/− mice, some of them treated with LPS (t=0) and with RGDfV (SEQ ID NO: 1) every 8 hours for 24 hours were obtained by standard sieve technique^25. 2 mg of glomerular lysate were used to prepare for positive or negative control by incubating with 10 μl of GTPγS or GDP respectively. For small GTPase pull-down assay, the same amount (2 mg) of glomerulus lysates from different treatments were incubated with 40 μl of Rhotekin RBD or PAK PBD agarose bead slurry for 1 h at 4° C. After washing 3 times with 1× assay buffer, beads were harvested and resuspended in LDS sample buffer. Samples were heated for 10 min at 70° C. before SDS-PAGE. After electrophoresis and protein transfer, the membranes were blocked with 5% milk, and incubated with anti-Rho, anti-Rac, and anti-Cdc42 antibodies for 1 h, followed by second antibody incubation and detection with ECL (Pierce). For loading control, 100 μg of glomerular lysates from different treatments were applied and immunoblotted with the same anti-Rho, anti-Cdc42 and anti-Rac antibodies as used above.

Rac1 = assay: GTPase activity assay in isolated glomeruli (Rac1); assay type: in vivo, mouse; settings: wild type mice co-injected with LPS and RGDfV (every 8 hours for 24 hours)
Experimental: as §1

αvβ3 integrin [9] = target: T1, αvβ3 integrin; assay type: in vivo; settings: mice, LPS only (200 μg intraperitoneally), urine 24 h after LPS
Experimental: Immediately after the first injection, 200 μg of LPS was injected intraperitoneally into each mouse to induce proteinuria. 24 h after LPS injection, urine was collected for Braford assay.

[10] = test system: wild type and uPAR−/− mice; assay: LPS mouse model of proteinuria in wild type and uPAR−/− mice, urine Bradford assay; assay type: in vivo; set-up: unit not given beside the values; settings: LPS injection
Source text: All animal studies were approved by the Subcommittee on Research Animal Care of the Massachusetts General Hospital. uPAR^−/− mice and uPA^−/− mice on a mixed background of 75% C57BL/6 and 25% 129 Swiss were obtained from University of Leuven, Belgium; Vn^−/− mice (C57BL/6) were obtained from Dr. David Ginsburg, University of Michigan; β3 integrin^−/− mice (C57BL/6) were obtained from Dr. Raghuram Kalluri, Boston. C57BL/6 and 129 Swiss mice were purchased from Jackson Laboratory (Bar Harbor). The LPS mouse model was utilized as previously described^9. The induction of B7-1 was used as a control for the effectiveness of LPS. Rat PAN nephrosis model was set up by a single intraperitoneal injection of puromycin (15 mg/100 g of body weight, Sigma-Aldrich) into Sprague-Dawley rats as described before^27. NZB/W F1 mice were purchased from the Jackson Laboratory and analyzed after 20 weeks when proteinuria and Lupus glomerulonephritis were present. As diabetic nephropathy rat model, we used Sprague Dawley rats treated with Streptozotocin. Hyperglycaemic state was induced by an intraperitoneal Streptozotocin injection (50-70 mg/kg body weight, in citrate buffer 10 mmol/L, pH 4.5). The hyperglycaemic state developed within 48 h and was maintained during the lifetime of the animals. No insulin administration was required. Glycosuria was evaluated with test strips of the Uriscan TM (YD Diagnostics, VWR, Montréal, QC, Canada) and glycaemia with the AccuSoft Monitoring System (Roche Diagnostics, Laval, QC, Canada). At the end of the study, glycaemia values were 4.3±0.53 and 8.5±0.7 mmol/L for 3 months-old and 12 months-old normoglycaemic animals, respectively, and 21.2±0.9 and 33.9±4.0 mmol/L for 3 months-old and 12 months-old diabetic animals, respectively.
uPAR-cDNA plasmids were introduced into uPAR^−/− mouse using the TransIT in vivo gene delivery system (Mims) as described previously^32,8. The following cDNAs and vector constructs were used for gene delivery: uPAR; mutated uPAR D262A^38 (kind gift from Y Wei and H A Chapman, University of California, San Francisco); β3 integrin and the constitutively active form of β3 integrin, D616-690 (β3Δ616-690)^48; Podocin promoter vector p2.5^33 (a kind gift from Dr. L B Holzman, University of Michigan) for Pod-uPAR; ICAM-2 promoter vector^34 for ICAM-2-uPAR. Tissues were analyzed for expression as described previously^8.

CN(C)c1ncnc2c1ncn2[C@@H]1O[C@H](CO)[C@@H](N)[C@H]1O [PAN, puromycin aminonucleoside]
directed podocyte motility into the wound track (cultured podocytes [1]): 79.31±3.72
podocyte migration (migrated podocytes) (cultured podocytes [2]): 67±4.9
Relative quantification of uPAR induction (uPAR): 0.61±0.10

O=C(O)C[C@H](NC(=O)CNC(=O)c1cncc(NC2=NCC(O)CN2)c1)c1cc(Cl)cc(Br)c1O (stereo partly drawn) [S247]
already existing proteinuria; urinary protein at timepoint 66 h (αvβ3 integrin [3]): Reduction of urinary protein

Methyl-β-cyclodextrin
activation of β3 integrin in response to LPS (AP5 staining) (β3 integrin): abrogated

anti-active β3 integrin antibody AP5 (GTI)
Fluorescent intensity units (fluorescent intensity units) [4]: 3060
Fluorescent intensity units (fluorescent intensity units) [5]: 535
Fluorescent intensity units (fluorescent intensity units) [6]: 1640
Fluorescent intensity units (fluorescent intensity units) [7]: 3020
Fluorescent intensity units (fluorescent intensity units) [8]: 312

cyclo-[Arg-Gly-Asp-D-Phe-Val] [cyclo-RGDfV]
induction of active cdc42 in glomeruli (cdc42): inhibited
induction of active Rac1 in glomeruli (Rac1): inhibited

lipopolysaccharide [LPS]
directed podocyte motility into the wound track (cultured podocytes [1]): 85.34±4.1
proteinuria (urine Bradford assay) (αvβ3 integrin [9]): 0.924±0.1055
podocyte migration (migrated podocytes) (cultured podocytes [2]): 72±5.5
proteinuria (urine Bradford assay) ([10]; uPAR−/− mice reconstituted with uPAR-cDNA): 0.92±0.46
proteinuria (urine Bradford assay) ([10]; uPAR−/− mice which received control plasmids): 0.26±0.15
proteinuria (urine Bradford assay) ([10]; uPAR−/− mice): 0.32±0.14
proteinuria (urine Bradford assay) ([10]; wild type mice): 0.82±0.32
Relative quantification of uPAR induction (uPAR): 0.49±0.06

urokinase
podocyte directional migration / motility (cultured podocytes [1]; cultured podocytes, addition of external urokinase): did not alter; also recorded: did not modify
